# Assay results: publication PMC11279841, “New Members of the Centrapalus Coumarin and Pauciflorin Series from Centrapalus pauciflorus” (Pharmaceutics, 2024)
# Read-outs that look alike come from different tables or passages of the source.
# What was measured:
# HeLa cells [1] = settings: cited from earlier work
# MCF-7 cells [2] = settings: cited from earlier work
# A2780 cells [3] = system: A2780 cells; parameters: method as in doi:10.1016/j.arabjc.2023.104777; settings: previous work; cited from earlier work
# [4] = system: Leishmania major promastigotes; parameters: method as in PMID 9170288; settings: in vitro; cited from earlier work
# [5] = system: Plasmodium falciparum schizonts; parameters: method as in PMID 9170288; settings: in vitro; cited from earlier work
# human lymphocytes = system: human lymphocytes; parameters: method as in PMID 9170288; settings: cited from earlier work
# Bulinus truncatus = settings: cited from earlier work
# Biomphalaria glabrata = settings: cited from earlier work
# [6] = system: A549, HCT116, SK-HEP-1, and HL-60; parameters: method as in PMID 29641986; settings: four cancer cell lines; cited from earlier work
# MCF-7 cells [7] = experiment: MTT antiproliferative assay, MCF-7 breast cancer cells; format: cell-based, human; settings: for inhibition at 10 µM / inhibition at 30 µM: Homo sapiens, read-out: Inhibition (%) ± SEM
# Excerpt: (§1) The antiproliferative activities of the isolated compounds were investigated on a panel of human adherent cancer cell lines using the 3-(4,5-dimethylthiazol-2-yl)-2,5-diphenyltetrazolium bromide) (MTT) assay. Cell lines isolated from cervical (HeLa and SiHa), breast (MCF-7 and MDA-MB-231), ovarian cancers (A2780), and non-malignant mouse fibroblasts (NIH/3T3) were purchased from the European Collection of Cell Cultures (Salisbury, UK). The SiHa cell line was obtained from the […] (Manassas, VA, USA). The cell culturing and determination of the antiproliferative effects of the isolated compounds were conducted using a methodology described previously. Calculations were performed using GraphPad Prism 5.01 software (GraphPad Software Inc., San Diego, CA, USA).
# (§2) The antiproliferative properties of centrapalus coumarins N (2) and O (5) were investigated against a panel of human adherent tumor cell lines of gynecological origin by in vitro MTT assay (Table 4). The amounts of the other compounds were insufficient for the in vitro assay. Compounds 2 and 5 were tested on the breast (MCF-7, MDA-MB-231), cervical (HeLa, SiHa), and ovarian (A2780) cancer cells in two concentrations (10 and 30 µM). The anticancer agent cisplatin was used as a positive control. […] Non-cancerous mouse fibroblasts (NIH/3T3) were additionally included to characterize the cancer selectivity of the tested compounds. Since compounds 2 and 5 elicited weak action against fibroblasts, lower than against the ovarian cancer cells, their effect detected on A2780 cells could be regarded as selective.
# HeLa cells [8] = experiment: MTT antiproliferative assay, HeLa cervical cancer cells; format: cell-based, human; settings: for inhibition at 10 µM / inhibition at 30 µM: Homo sapiens, read-out: Inhibition (%) ± SEM
# Excerpt: as §1, §2
# MDA-MB-231 cells = experiment: MTT antiproliferative assay, MDA-MB-231 breast cancer cells; format: cell-based, human; settings: for inhibition at 10 µM / inhibition at 30 µM: Homo sapiens, read-out: Inhibition (%) ± SEM
# Excerpt: as §1, §2
# A2780 cells [9] = experiment: MTT antiproliferative assay, A2780 ovarian cancer cells; format: cell-based, human; settings: for IC50: A2780, read-out: Calculated IC50 Value (converted); for inhibition at 10 µM / inhibition at 30 µM: read-out: Inhibition (%) ± SEM
# Excerpt: as §1, §2
# SiHa cells [10] = experiment: MTT antiproliferative assay, SiHa cervical cancer cells; format: cell-based, human; settings: for inhibition at 10 µM / inhibition at 30 µM: Homo sapiens, read-out: Inhibition (%) ± SEM
# Excerpt: as §1, §2
# [11] = system: NIH/3T3 mouse fibroblasts; experiment: MTT antiproliferative assay, non-malignant NIH/3T3 fibroblasts; format: cell-based; settings: for inhibition at 10 µM / inhibition at 30 µM: Mus musculus, NIH3T3, read-out: Inhibition (%) ± SEM; for action against fibroblasts (in words): NIH/3T3, lower than against the ovarian cancer cells
# Excerpt: as §1, §2
# SiHa cells [12] = system: SiHa cells; parameters: method as in doi:10.1016/j.arabjc.2023.104777; settings: previous work; cited from earlier work
# [13] = system: MCF-7, MDA-MB-231, HeLa, SiHa and A2780 cells; settings: previous antiproliferative assay; cited from earlier work
# [14] = ref our previous studies, read-out: IC50 (remarkable antiproliferative activity)
# [15] = read-out: Calculated IC50 Value (converted)
molecule,measurement,setting,value
"C=C[C@]1(C)C[C@@H](C=C(C)C)Oc2c1c(=O)oc1cccc(C)c21 [Compound 7, Centrapalus coumarin A]",IC50,"HeLa cells [1]; previous work, read-out: IC50",9.21 µM
same,IC50,HeLa cells [1]; [14],< 10 µM
same,IC50,MCF-7 cells [2]; [14],< 10 µM
same,IC50,A2780 cells [3],19.7 µM
pauciflorin F,IC50,HeLa cells [1]; [14],< 10 µM
same,IC50,MCF-7 cells [2]; [14],< 10 µM
Cc1cccc2oc(=O)c3c(c12)O[C@H](C)[C@@]3(C)CC(=O)[C@@H]1OC1(C)C [cycloisobrachycoumarinone epoxide],activity against Leishmania major promastigotes (in words),[4],exhibited activity
same,activity against Plasmodium falciparum schizonts (in words),[5],exhibited activity
same,inhibition on the proliferation of human lymphocytes (in words),human lymphocytes,weak inhibition
Ethuliacoumarin A,molluscicidal activity (in words),Bulinus truncatus,molluscicidal activity
same,molluscicidal activity (in words),Biomphalaria glabrata,molluscicidal activity
Cc1cccc2oc(=O)c3c(c12)O[C@@H](C)[C@@]3(C)CC(=O)[C@@H]1OC1(C)C [2′-epicycloisobrachycoumarinone epoxide],activity against Leishmania major promastigotes (in words),[4],exhibited activity
same,activity against Plasmodium falciparum schizonts (in words),[5],exhibited activity
same,inhibition on the proliferation of human lymphocytes (in words),human lymphocytes,weak inhibition
C/C(=C\CC[C@@]1(C)C=Cc2c(O)cc(C)cc2O1)CC(=O)CC(C)C [anthopogochromene B],cytotoxic activity (in words),[6],moderate cytotoxic activity
"C=CC1(C)CC(=O)C2C(=O)c3c(C)cccc3OC21C1(C)Cc2c(c3c(C)cccc3oc2=O)O1 (centres unmarked) [Compound 2, centrapalus coumarin N]",inhibition at 10 µM,"MCF-7 cells [7]; MCF7, 10 µM",34.6 ± 2.19%
same,inhibition at 30 µM,"MCF-7 cells [7]; MCF7, 30 µM",44.2 ± 1.76%
same,inhibition at 10 µM,HeLa cells [8]; 10 µM,< 20%
same,inhibition at 30 µM,HeLa cells [8]; 30 µM,41.8 ± 1.42%
same,inhibition at 10 µM,"MDA-MB-231 cells; MDA-MB-231, 10 µM",< 20%
same,inhibition at 30 µM,"MDA-MB-231 cells; MDA-MB-231, 30 µM",25.4 ± 2.06%
same,IC50,A2780 cells [9]; Homo sapiens,20.1 µM
same,inhibition at 10 µM,"A2780 cells [9]; Homo sapiens, A2780, 10 µM",27.7 ± 1.34%
same,inhibition at 30 µM,"A2780 cells [9]; Homo sapiens, A2780, 30 µM",66.2 ± 0.7%
same,antiproliferative activity against ovarian cancer cells (in words),A2780 cells [9],considerable and selective
same,inhibition at 10 µM,SiHa cells [10]; 10 µM,< 20%
same,inhibition at 30 µM,SiHa cells [10]; 30 µM,30.7 ± 1.49%
same,inhibition at 10 µM,"[11]; NIH/3T3, 10 µM",< 20%
same,inhibition at 30 µM,"[11]; NIH/3T3, 30 µM",48.5 ± 2.2%
same,action against fibroblasts (in words),[11],weak action
isoethuliacoumarin A,molluscicidal activity (in words),Bulinus truncatus,molluscicidal activity
same,molluscicidal activity (in words),Biomphalaria glabrata,molluscicidal activity
centrapalus coumarin B,IC50,HeLa cells [1]; [14],< 10 µM
same,IC50,MCF-7 cells [2]; [14],< 10 µM
C=C[C@@]1(C)C[C@@]2(C=C(C)C(=O)O2)Oc2c1c(=O)oc1cccc(C)c21 [Compound 6],IC50,"HeLa cells [1]; previous work, read-out: IC50",14.6 µM
same,IC50,"MCF-7 cells [2]; previous work, read-out: IC50",15.3 µM
same,IC50,SiHa cells [12],18.9 µM
same,IC50,A2780 cells [3],29.9 µM
"CC1=C[C@H](C[C@]2(C)c3c(c4c(C)cccc4oc3=O)O[C@@H]2C)OC1=O [Compound 8, Hoehnelia coumarin]",antiproliferative activity (in words),[13],ineffective
"C=C[C@@]1(C)C[C@@H](/C=C(\C)C(=O)OC)Oc2c1c(=O)oc1cccc(C)c21 [Compound 5, (3′R),(5′S)-(E)-methyl 3-(4,10-dimethyl-5-oxo-4-vinyl-2,3,4,5-tetrahydropyrano[3,2-c]chromen-2-yl)-2-methyl acrylate]",inhibition at 10 µM,"MCF-7 cells [7]; MCF7, 10 µM",< 20%
same,inhibition at 30 µM,"MCF-7 cells [7]; MCF7, 30 µM",35.5 ± 1.51%
same,inhibition at 10 µM,HeLa cells [8]; 10 µM,< 20%
same,inhibition at 30 µM,HeLa cells [8]; 30 µM,31.3 ± 1.18%
same,inhibition at 10 µM,"MDA-MB-231 cells; MDA-MB-231, 10 µM",< 20%
same,inhibition at 30 µM,"MDA-MB-231 cells; MDA-MB-231, 30 µM",25.5 ± 1.2%
same,IC50,A2780 cells [9]; Homo sapiens,16 µM
same,inhibition at 10 µM,"A2780 cells [9]; Homo sapiens, A2780, 10 µM",27.4 ± 1.55%
same,inhibition at 30 µM,"A2780 cells [9]; Homo sapiens, A2780, 30 µM",69.3 ± 1.12%
same,antiproliferative activity against ovarian cancer cells (in words),A2780 cells [9],considerable and selective
same,inhibition at 10 µM,SiHa cells [10]; 10 µM,< 20%
same,inhibition at 30 µM,SiHa cells [10]; 30 µM,33.3 ± 1.32%
same,inhibition at 10 µM,"[11]; NIH/3T3, 10 µM",< 20%
same,inhibition at 30 µM,"[11]; NIH/3T3, 30 µM",28.4 ± 2.5%
same,action against fibroblasts (in words),[11],weak action
"N.N.[Cl][Pt][Cl] [Cisplatin, cisplatin, reference compound]",Inhibition (%) ± SEM,"MCF-7 cells [7]; MCF7, 10 µM",66.91 ± 1.81%
same,Inhibition (%) ± SEM,"MCF-7 cells [7]; MCF7, 30 µM",96.80 ± 0.35%
same,IC50,"MCF-7 cells [7]; MCF7, read-out: Calculated IC50 Value (converted)",5.78 µM
same,Inhibition (%) ± SEM,HeLa cells [8]; 10 µM,42.61 ± 2.33%
same,Inhibition (%) ± SEM,HeLa cells [8]; 30 µM,99.93 ± 0.26%
same,IC50,HeLa cells [8]; [15],12.4 µM
same,Inhibition (%) ± SEM,"MDA-MB-231 cells; MDA-MB-231, 10 µM",42.72 ± 2.68%
same,Inhibition (%) ± SEM,"MDA-MB-231 cells; MDA-MB-231, 30 µM",86.44 ± 0.42%
same,IC50,"MDA-MB-231 cells; MDA-MB-231, read-out: Calculated IC50 Value (converted)",10.2 µM
same,Inhibition (%) ± SEM,"A2780 cells [9]; A2780, 10 µM",83.57 ± 2.21%
same,Inhibition (%) ± SEM,"A2780 cells [9]; A2780, 30 µM",95.02 ± 0.28%
same,IC50,A2780 cells [9],1.3 µM
same,Inhibition (%) ± SEM,SiHa cells [10]; 10 µM,60.98 ± 0.92%
same,Inhibition (%) ± SEM,SiHa cells [10]; 30 µM,88.95 ± 0.53%
same,IC50,SiHa cells [10]; [15],4.29 µM
same,Inhibition (%) ± SEM,"[11]; NIH/3T3, 10 µM",73.88 ± 1.63%
same,Inhibition (%) ± SEM,"[11]; NIH/3T3, 30 µM",97.10 ± 0.15%
same,IC50,"[11]; NIH/3T3, read-out: Calculated IC50 Value (converted)",5.5 µM
centrapalus coumarin F,IC50,HeLa cells [1]; [14],< 10 µM
same,IC50,MCF-7 cells [2]; [14],< 10 µM
